# Experiments:
# [1] = target: T1, HIV reverse transcriptase (Human immunodeficiency virus type 1 group M subtype B, UniProt P04585); experiment: Reverse transcriptase inhibition assay with streptavidin-coated polystyrene europium beads and CCD imaging; format: biochemical
# T1 construct: 0.05 units of HIV reverse transcriptase (Amersham T3610Y); purchased Amersham T3610Y
# Method: The reverse transcriptase enzyme SPA assay (Amersham NK8972) is a homogeneous assay system which uses a biotinylated DNA/RNA oligonucleotide enzyme substrate which is captured on streptavidin PVT SPA beads for quantification. In this assay, streptavidin-coated organic chelate beads prepared from polystyrene (PST) containing europium were used and the inhibition of reverse transcriptase by aurintricarboxylic acid determined.
# Biotinylated, ready annealed primer/template was added to the wells of a white microplate. This was followed by [^3H]TTP (Amersham TRK576) in 127 nM mixture of dATP, dCTP, dGTP, and TTP buffered in tris/HCl pH 8.0, 80 mM KCl, 10 mM MgCl2, 10 mM DTT and 0.05% w/v Nonidet P40. Aurintricarboxylic acid at concentrations between 0.05 and 1 μM was added and the reactions were initiated by the addition of 0.05 units of HIV reverse transcriptase (Amersham T3610Y). Plates were incubated at 37° C. for 20 minutes and were terminated with the addition of stop reagent. 0.1 mg of streptavidin coated PST beads was added and the plates were incubated overnight at room temperature. The signal generated was detected using the CCD imaging system.
# [2] = target: T1, HIV reverse transcriptase; experiment: Reverse transcriptase enzyme SPA assay (conventional SPA, streptavidin PVT SPA beads); format: biochemical
# Text: The reverse transcriptase enzyme SPA assay (Amersham NK8972) is a homogeneous assay system which uses a biotinylated DNA/RNA oligonucleotide enzyme substrate which is captured on streptavidin PVT SPA beads for quantification. […]
compound,measurement,setting,value
O=C(O)C1=CC(=C(c2ccc(O)c(C(=O)O)c2)c2ccc(O)c(C(=O)O)c2)C=CC1=O [aurintricarboxylic acid],IC50,[1],230 nM
same,inhibition of reverse transcriptase activity,"[1]; 1 μM of inhibitor, PST beads, CCD imaging",85%
same,IC50,[2],180 nM
